What was measured:
[1] = system: lymphoma cell line OCI-LY3; assay: Standard 6-day growth-death assay, OCI-LY3; type: cell-based; conditions: single agent or fixed 1:1 combination
Protocol: The majority cell lines were obtained from GSK BioCat group, American Type Culture Collection (ATCC), or the Deutsche Sammlung von Mikroorganismen and Zellbulturen (DSMZ). All cell lines were maintained in growth medium in T75 cm^2 flasks, incubated at 37° C. with 5% CO2 and split every 3 to 4 days. Growth media conditions and cell line information are detailed in Table 1. Cells were counted using the Vi-Cell Analyzer (Beckman Coulter ViCell) to obtain viable cell counts.
Optimal cell seeding density was determined for all cell lines by monitoring proliferation over a range of seeding densities in 384-well format and identifying the seeding density at which cells grew logarithmically throughout six days. 50 uL of cells per well were plated in 384-well plates at the optimal seeding density in preferred supplemented culture media. Three plates were prepared per cell line and incubated overnight at 37° C. in 5% CO2.
In these studies, lymphoma cell lines were treated with PRMT5 inhibitor, compound A and BCL-2 targeted inhibitor, ABT-199 single agent or in combination using a fixed 1:1 ratio of each inhibitor over a 20-point titration. For compound A single and fixed 1:1 ratio combination with ABT-199 cell proliferation assay, cells were treated in duplicate with a 20-point, two-fold dilution series of Compound A, ABT-199 (≥14 μM top dose) single or combo treatment, and ≤0.15% DMSO final concentration. Plates were incubated for six days at the conditions described above. Cell growth was measured using CellTiter-Glo (Promega) and luminescence signal was detected with a BioTek Synergy Neo microplate reader. A plate of untreated cells was read at the time of compound/biologic addition to determine the T0 value representing the starting number of cells. Data were fit with a four-parameter equation to generate a concentration response curve using Assay Client software.
Results were background corrected by subtraction of values from wells containing no cells, expressed as a percentage of the T0 value (value at time=0), and plotted against compound concentration. The T0 value was normalized to 100% and represents the number of cells present at the time of compound addition. The cellular response was determined for each compound using a 4- or 6-parameter curve fit of cell viability against concentration using Assay Client software. Growth IC50 (gIC50) values correspond to the concentration intersecting the mid-point of the growth window (between DMSO and T0 values). Growth IC100 (gIC100) values correspond to the concentration at which 100% growth inhibition is achieved, based on the growth window. The Ymin−T0 value, a measure of net population cell growth or death, is calculated by subtracting the T0 value (100%) from the Ymin value (%) that is determined from the fit of the concentration response curve. Death EC50 (dEC50) values correspond to the concentration at which 50% net cell death is observed.
Individual curves were quality checked for three criteria: outlier data points, cell growth (population doubling ≥1.5), and proper curve fitting. […] Individual curves were QC checked for outlier data points, cell growth (population doubling ≥1.5), and proper curve fitting. Obvious outlier data points were omitted only as needed to ensure proper curve fit.
For fixed ratio screening, combination activity was assessed by the fold change in gIC50 compared to the 2 single agent curves by dividing the compound ratio as necessary. Combinations showing >3-fold and >5-fold change from single agent are described as below: • Fold changes ≥5 are considered to represent strong synergy. • Fold changes between 3.0 and 4.9 are considered to represent weak synergy. • Fold changes <3 are considered to represent no synergy.

lymphoma cell line DB = assay: Serial dilutions: fixed ABT-199 concentration with Compound A titration, six-day cell proliferation; type: cell-based
Protocol: Serial dilutions were performed for the combination to ascertain the change in gIC50, gIC100 and dEC50 when the inhibitors are used together in a PRMT5 inhibitor cell proliferation. A first compound plate was prepared where PRMT5 inhibitor, Compound A, was prepared with a 20-point, two-fold dilution series of compound A from column 1 to 20. A second compound plate was prepared using the BCL-2 inhibitor ABT-199. ABT-199 was titrated in a 16-point 2-fold dilution series from row A to Q. A third plate was then created by added equal volume of 12 ul (ABT-199) from each well in the second plate into the corresponding well in the first plate. The third plate comprised rows from A to Q, each row comprising a fixed concentration of ABT-199. Columns 1-20 comprised varying concentrations of compound A from the 20-point dilution. Plates were incubated for six days at the conditions described above. Lymphoma cell line DB was treated with the solution in each of the wells. Cell growth was measured using CellTiter-Glo (Promega) and luminescence signal was detected with a BioTek Synergy Neo microplate reader. A plate of untreated cells was read at the time of compound/biologic addition to determine the T0 value representing the starting number of cells. Data were fit with a four-parameter equation to generate a concentration response curve for each row using Assay Client software. A comparison was made across each row in the third plate to determine, when keeping a fixed concentration of ABT-199, what concentration of compound A is needed to reach the gIC50, gIC100 or dEC50 respectively and the fold change compared to treating the same cell with compound A alone.
Tables 4a-c show the results of the above serial dilution experiments wherein ‘fold change’ is the difference between the amount of compound A needed to achieve gIC50, gIC100 or dEC50 respectively, compared to the amount of compound A needed to achieve gIC50, gIC100 or dEC50 respectively when compound A is given as a single agent.

[2] = fixed ABT-199 with compound A titration, vs compound A alone

EC50 (lymphoma cell line DB; 144 h, single agent, six days, read-out: dEC50): > 7.33 µM | IC50 (lymphoma cell line DB; 144 h, single agent, six days, read-out: gIC50): 6.41 µM
SMILES: CC1(C)CCC(CN2CCN(c3ccc(C(=O)NS(=O)(=O)c4ccc(NCC5CCOCC5)c([N+](=O)[O-])c4)c(Oc4cnc5[nH]ccc5c4)c3)CC2)=C(c2ccc(Cl)cc2)C1 [ABT-199, venetoclax, reference compound]
EC50 ([1]; Homo sapiens, 144 h, average of n=2, read-out: dEC50): 7.51 µM | IC50 ([1]; Homo sapiens, 144 h, average of n=2, read-out: gIC50): 1.47 µM | Ymin-T0 ([1]; average of n=2): −76% | gIC100 ([1]; average of n=2): 7.157 µM | concentration of ABT-199 at which ≥3 fold change was achieved in dEC50 (lymphoma cell line DB; fixed ABT-199 with compound A titration): 1833 nM | concentration of ABT-199 at which ≥3 fold change was achieved in gIC50 (lymphoma cell line DB; [2]): 115 nM | concentration of ABT-199 at which ≥3 fold change was achieved in gIC100 (lymphoma cell line DB; [2]): 458 nM | gIC100 (lymphoma cell line DB; single agent, six days): 7.331 µM
